The values that follow come from patent US5789434A, “Derivatives of substituted 4-biarylbutyric acid as matrix metalloprotease inhibitors” (priority 1995, dated 1998).

What all share (format): biochemical
Assay [1] deals with T1, MMP-3 (Homo sapiens, UniProt P08254).
T1 construct: Truncated Prostromelysin-257 was expressed in a soluble form in E.coli; made in house; host or cells: E. coli
Nature of the assay: Automated MMP Profiling Assay, MMP-3 fluorogenic. The conditions noted are these: for IC50: 96-well automated, P218. The text has this: This assay with each invention compound was run with the three enzymes MMP-3, MMP-9 and MMP-2 in parallel as adapted for a 96-well microtitre plate using a Hamilton A® workstation.

In assay [2] the target is T2, MMP-2 (Homo sapiens, UniProt P08253).
T2 sequence (P08253 110-660): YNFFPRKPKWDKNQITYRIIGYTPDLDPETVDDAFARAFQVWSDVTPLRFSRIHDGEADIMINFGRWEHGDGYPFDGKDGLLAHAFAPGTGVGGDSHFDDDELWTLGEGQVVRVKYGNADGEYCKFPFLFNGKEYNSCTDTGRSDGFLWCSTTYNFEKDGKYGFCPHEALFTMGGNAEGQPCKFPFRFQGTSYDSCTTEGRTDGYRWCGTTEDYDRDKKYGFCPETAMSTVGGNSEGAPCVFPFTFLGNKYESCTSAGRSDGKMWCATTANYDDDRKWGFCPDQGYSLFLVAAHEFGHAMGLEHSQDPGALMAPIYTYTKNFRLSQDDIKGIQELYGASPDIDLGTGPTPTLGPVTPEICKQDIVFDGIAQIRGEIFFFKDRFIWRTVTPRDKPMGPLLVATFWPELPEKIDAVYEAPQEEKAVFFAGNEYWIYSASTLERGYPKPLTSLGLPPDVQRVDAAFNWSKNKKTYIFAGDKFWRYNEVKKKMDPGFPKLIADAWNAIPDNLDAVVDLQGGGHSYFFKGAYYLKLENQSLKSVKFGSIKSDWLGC
The assay can be described thus: Automated MMP Profiling Assay, MMP-2 fluorogenic. The conditions noted are these: 96-well automated, P218; read-out: MMP-2 Fluorogenic IC50 (profiling).

Assay [3] concerns the target T3, MMP-9 (Homo sapiens, UniProt P14780).
T3 construct: from tissue; host or cells: human polymorphonuclear leukocytes (PMN) from whole blood (New York Blood Center), PMA-stimulated supernatant
The assay can be described thus: Automated MMP Profiling Assay, MMP-9 fluorogenic. The conditions noted are these: for IC50: 96-well automated, P218. How it is done:
Briefly, polymorphonuclear leukocytes (PMN) preparations were isolated as described above from 3 or more units of freshly drawn whole blood obtained from the New York Blood Center (New York, N.Y.). Cells were resuspended in phosphate buffered saline (PBS) containing 100 ng/ml phorbol myristate acetate (PMA) in the presence of 50 mM diisopropylfluorophospate (DFP), 1 μg/ml leupeptin and aprotinin, and 1 mg/ml catalase for 1 hr at 37° C. Supernatants were collected by centrifugation (300×g) and the samples were frozen at -70° C. All chromatographic methods were performed at 4° C. Thawed samples were concentrated 5-fold using an Amicon chamber equipped with a YM-10 membrane. The concentrate was pressure dialyzed against 0.02M Tris-HCl, 0.1M NaCl, 1 mM CaCl2, 1 μM ZnCl2, 0.001% Brij-35, 0.02% sodium azide (NaN3), pH 7.5 and applied to DEAE ion exchange chromatography resin which was previously equilibrated with the same buffer at a flow rate of 0.4 ml/min. The column was extensively washed with the same buffer and gelatinase was eluted as 4 ml fractions from the column with 0.02M Tris-HCl, 0.5M NaCl, 1 mM CaCl2, 1 μM ZnCl2, 0.001% Brij-35, 0.02% NaN3, pH 7.5. Gelatinase containing fractions were observed by gelatin zymography (see below), loaded onto a gelatin agarose affinity resin and washed with the same buffer. Gelatinase activity was eluted at a flow rate of 1 ml/min from the column as 1 ml fractions with 0.02M Tris-HCl, 1M NaCl, 1 mM CaCl2, 1 μM ZnCl2, 0.001% Brij-35, 0.02% NaN3, pH 7.5 containing 10% dimethyl sulfoxide (DMSO). The fractions containing gelatinase activity were pooled and dialyzed against 0.005M Tris-HCl, 5 mM NaCl, 0.5 mM CaCl2, 0.1 μM ZnCl2, 0.001% Brij-35, pH 7.4. The protein content associated with material was determined with a micro-BCA assay (Pierce, Rockford, Ill.), lyophilized and reconstituted to a desired working concentration (100 μg/ml).
This assay was run with a protocol analogous to that reported for MMP-3 inhibition using the synthetic peptide P218 and each of the three enzymes and measuring quenched fluorescence. This assay with each invention compound was run with the three enzymes MMP-3, MMP-9 and MMP-2 in parallel as adapted for a 96-well microtitre plate using a Hamilton A® workstation.

Assay [4] concerns the target T3, MMP-9. The assay can be described thus: Thiopeptilide MMP-9 Inhibition Assay. The conditions noted are these: for inhibition at 5 µM: read-out: MMP-9: Thiopep. % inhibition.
In assay [5] the target is T1, MMP-3. The assay can be described thus: Primary Thiopeptilide MMP-3 Inhibition Assay. The conditions noted are these: at 5 μM; read-out: MMP-3 Thiopep. % inhibition.
Description: Enzyme: recombinant stromelysin expressed in E.coli and purified as described above. […] The protocols for the assay of compounds as stromelysin inhibitors was the same as that used for MMP-9 except that the assay buffer was 50 mM MES, pH 6.5 containing 150 mM NaCl, 10 mM CaCl2, 0.005% Brij, and 1% DMSO.

By IC50 is commonly meant the concentration needed to halve the response being measured. What is called inhibition is the change of the read-out against control, counted positive when it falls.

T1 sequence (P08254 100-274 limits assumed): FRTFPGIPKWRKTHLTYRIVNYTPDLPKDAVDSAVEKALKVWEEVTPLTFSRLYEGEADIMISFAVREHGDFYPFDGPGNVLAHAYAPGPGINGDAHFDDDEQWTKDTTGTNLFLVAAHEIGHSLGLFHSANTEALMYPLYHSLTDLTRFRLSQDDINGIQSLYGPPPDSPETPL
T3 sequence (P14780 107-707 limits assumed): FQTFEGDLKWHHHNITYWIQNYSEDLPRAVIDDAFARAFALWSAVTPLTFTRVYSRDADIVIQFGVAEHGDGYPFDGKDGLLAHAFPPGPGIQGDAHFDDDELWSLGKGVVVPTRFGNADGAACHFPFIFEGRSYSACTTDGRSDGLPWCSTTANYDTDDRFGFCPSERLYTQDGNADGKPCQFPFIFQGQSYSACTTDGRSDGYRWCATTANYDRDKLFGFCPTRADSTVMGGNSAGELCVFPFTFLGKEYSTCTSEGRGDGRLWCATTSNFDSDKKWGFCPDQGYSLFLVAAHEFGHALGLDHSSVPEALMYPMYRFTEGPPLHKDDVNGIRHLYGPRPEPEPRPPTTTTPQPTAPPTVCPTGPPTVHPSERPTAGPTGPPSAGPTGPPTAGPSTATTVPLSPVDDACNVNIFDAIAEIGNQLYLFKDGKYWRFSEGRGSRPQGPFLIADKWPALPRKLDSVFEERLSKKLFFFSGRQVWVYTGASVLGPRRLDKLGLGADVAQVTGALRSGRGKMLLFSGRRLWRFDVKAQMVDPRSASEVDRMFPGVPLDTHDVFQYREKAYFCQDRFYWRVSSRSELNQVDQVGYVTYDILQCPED

In the case of `O=C(O)[C@H]1[C@H](CSCc2ccccc2)CC[C@@H]1C(=O)c1ccc(-c2ccc(Cl)cc2)cc1` (relative stereo) [Example 372, Cyclopentanecarboxylic acid, 2-[(4'-chloro[1,1'-biphenyl]-4-yl)carbonyl]-5-[[(phenylmethyl)thio]methyl]-, (1α,2β,5β)-], the IC50 in assay [1] stood at 0.039 µM; in assay [2], 0.022 µM; in assay [3], 0.065 µM.

With `O=C(NC[C@@H]1CC[C@H](C(=O)c2ccc(-c3ccc(Cl)cc3)cc2)[C@H]1C(=O)O)OCc1ccccc1` (relative stereo) [Example 377], the IC50 in assay [1] was 0.024 µM; in assay [2], 0.028 µM; in assay [3], 0.044 µM.

Regarding `CCCCNC(=O)c1ccccc1CCC(CC(=O)c1ccc(-c2ccc(Cl)cc2)cc1)C(=O)O` (stereo not drawn) [Example 147, [1,1'-Biphenyl]-4-butanoic acid, α-[2-[2-[(butylamino)carbonyl]phenyl]ethyl]-4'-chloro-γ-oxo-], the results for the IC50 in assay [1], in assay [2] and in assay [3] were 0.266 µM, 0.073 µM and 0.676 µM, respectively.

Regarding `O=C(O)[C@H]1[C@H](C(=O)c2ccc(-c3ccc(Cl)cc3)cc2)[C@H]2C=C[C@@H]1C2` (relative stereo) [Example 176, Bicyclo[2.2.1]hept-5-ene-2-carboxylic acid, 3-[(4'-chloro[1,1'-biphenyl]-4-yl)carbonyl]-, (2-endo-,3-exo)-], the inhibition at 5 µM was 26% in assay [1] (at 5 μM) and 24% in assay [3] (at 5 μM). Also, the 50% inhibitory concentration (IC50) in assay [2] was 2 µM.

Take `O=C(CC(CSc1ccccc1)C(=O)O)c1ccc(-c2ccc(O)cc2)cc1` (stereo not drawn) [Example 444, [1,1'-Biphenyl]-4-butanoic acid, 4'-hydroxy-γ-oxo-α-[(phenylthio)methyl]-]: the values for the IC50 in assay [1], in assay [2] and in assay [3] were under 5 µM, 0.043 µM and under 5 µM, respectively.

For the molecule `O=C(CC(CCN1C(=O)c2cccc(OCc3ccccc3)c2C1=O)C(=O)O)c1ccc(-c2ccc(Cl)cc2)cc1` (stereo not drawn) [Example 407, 2H-Isoindole-2-butanoic acid, α-[2-(4'-chloro[1,1'-biphenyl]-4-yl)-2-oxoethyl]-1,3-dihydro-1,3-dioxo-4-(phenylmethoxy)-], the IC50 was 0.069 µM in assay [1], 0.039 µM in assay [2] and 0.036 µM in assay [3].

Turning to `O=C(c1ccc(-c2ccc(Cl)cc2)cc1)[C@H]1CCN(C(=O)Cc2ccccc2)[C@@H]1C(=O)O` [Example 170, L-Proline, 3-[(4'-chloro[1,1'-biphenyl]-4-yl)carbonyl]-1-(phenylacetyl)-, trans-], the IC50 came out at 0.296 µM in assay [1], 0.103 µM in assay [2] and 1.8 µM in assay [3].

For `CCCCNC(=O)c1ccc(CCC(CC(=O)c2ccc(-c3ccc(Cl)cc3)cc2)C(=O)O)cc1` (stereo not drawn) [Example 152, [1,1'-Biphenyl]-4-butanoic acid, α-[2-[4-[(butylamion)carbonyl]phenyl]ethyl]-4'-chloro-γ-oxo-], the IC50 in assay [1] worked out at 0.367 µM; in assay [2] it was 0.21 µM; in assay [3], 0.597 µM.

For `O=C(NC[C@@H]1CC[C@H](C(=O)c2ccc(-c3ccc(Cl)cc3)cc2)[C@H]1C(=O)O)c1ccccc1` (relative stereo) [Example 370, Cyclopentanecarboxylic acid, 2-[(benzoylamino)methyl]-[(4'-chloro[1,1'-biphenyl]-4-yl)carbonyl]-, (1α,2β,5β)-], the IC50 in assay [1] was found to be 0.024 µM; in assay [2] it was 0.0087 µM; in assay [3], 0.026 µM.

With `O=C(O)[C@H]1[C@H](CN2C(=O)c3cc4ccccc4cc3C2=O)CC[C@@H]1C(=O)c1ccc(-c2ccc(Cl)cc2)cc1` (relative stereo) [Example 387, Cyclopentanecarboxylic acid, 2-[(4'-chloro[1,1'-biphenyl]-4-yl)carbonyl]-5-[(1,3-dihydro-1,3-dioxo-2H-benz[.function.]isoindol-2-yl)methyl]-, (1α,2β,5β)-], the figures for the IC50 in assay [1], in assay [2] and in assay [3] were 0.0094 µM, 0.0049 µM and 0.002 µM, respectively.

Regarding `O=C(CC(CCc1ccc(I)cc1)C(=O)O)c1ccc(-c2ccc(Cl)cc2)cc1` (stereo not drawn) [Example 128, [1,1'-Biphenyl]-4-butanoic acid, 4'-chloro-α-[2-(4-iodophenyl)ethyl]-γ-oxo-], the half-inhibitory concentration (IC50) came to 0.561 µM in assay [1], 0.145 µM in assay [2] and 0.715 µM in assay [3].

`COc1ccc2c(c1)C(=O)N(CCC(CC(=O)c1ccc(-c3ccc(Cl)cc3)cc1)C(=O)O)C2=O` (stereo not drawn) [Example 422, 2H-Isoindole-2-butanoic acid, α-[2-(4'chloro[1,1'-biphenyl]-4-yl)-2-oxoethyl]-1,3-dihydro-5-methoxy-1,3-dioxo-]: the 50% inhibitory concentration (IC50) in assay [1] was 0.0084 µM; in assay [2], 0.014 µM; in assay [3], 0.0016 µM.

With `O=C(O)[C@H]1[C@H](COc2ccc(Cl)cc2)CC[C@@H]1C(=O)c1ccc(-c2ccc(Cl)cc2)cc1` (relative stereo) [Example 388, Cyclopentanecarboxylic acid, 2-[(4'-chloro[1,1'-biphenyl]-4-yl)carbonyl]-5-[(4-chlorophenoxy)methyl]-, (1α,2β,5β)-], the IC50 in assay [1] came to 0.105 µM; in assay [2], 0.03 µM; in assay [3], 0.467 µM.

Take `O=C(CC(CCN1C(=O)[C@H]2CC=CC[C@H]2C1=O)C(=O)O)c1ccc(-c2ccc(Cl)cc2)cc1` (relative stereo) [Example 413, 2H-Isoindole-2-butanoic acid, α-[2-(4'-chloro[1,1'-biphenyl]-4-yl)-2-oxoethyl]-1,3,3a,4,7,7a-hexahydro-1,3-dioxo-, cis-]: the IC50 in assay [1] worked out at 0.039 µM; in assay [3], 0.109 µM.

With `Nc1cccc2c1C(=O)N(C[C@@H]1CC[C@H](C(=O)c3ccc(-c4ccc(Cl)cc4)cc3)[C@H]1C(=O)O)C2=O` (relative stereo) [Example 392, Cyclopentanecarboxylic acid, 2-[(4-amino-1,3-dihydro-1,3-dioxo-2H-isoindol-2-yl)methyl]-5-[(4'-chloro[1,1'-biphenyl]-4-yl)carbonyl]-, (1α,2β,5β)-], in assay [1], the IC50 stood at 0.0025 µM.

Regarding `O=C(CC(CSc1ccccc1)C(=O)O)c1ccc(-c2ccc(Cl)cc2)cc1` (stereo not shown) [Example 196, 4-[4-(4-chlorophenyl)phenyl]-4-oxo-2-(phenylthiomethyl)butanoic acid], the IC50 in assay [4] (pH 6.5, x (n) = average of n determinations, read-out: MMP-9: Thiopep. IC50) was 0.438 µM; in assay [2] it was 0.037 µM; in assay [3] it was 0.955 µM.

On to `O=C(O)[C@H]1C2CCC(CC2)[C@@H]1C(=O)c1ccc(-c2ccc(Cl)cc2)cc1` (relative stereo) [Example 331, Bicyclo[2.2.2]octane-2-carboxylic acid, 3-[(4'-chloro[1,1'-biphenyl]-4-yl)carbonyl]-, trans-], for which the inhibition at 5 µM stood at 15% in assay [5] and 18% in assay [4].

Regarding `O=C(CC(CCCc1ccccc1)C(=O)O)c1ccc(-c2ccc(OCCCc3ccccc3)cc2)cc1` (stereo not drawn) [Example 90, [1,1'-Biphenyl]-4-butanoic acid, γ-oxo-4'-(3-phenylpropoxy)-α-(3-phenylpropyl)-], the figures for the inhibition at 5 µM in assay [5] and in assay [4] were 36% and 11%, respectively.
